Each compound was assayed against T1, Human NPY Y5 receptors (Homo sapiens, UniProt Q15761) (assay: NPY Receptor Binding Assay). Details: Human NPY Y5 receptors expressed in CHO cells; 0.1 nM 125I-peptide YY; read-out: r/h Y5 Ki.
T1 construct: expressed in transfected cells; host or cells: CHO cells (membrane protein)
T1 sequence (Q15761 1-445): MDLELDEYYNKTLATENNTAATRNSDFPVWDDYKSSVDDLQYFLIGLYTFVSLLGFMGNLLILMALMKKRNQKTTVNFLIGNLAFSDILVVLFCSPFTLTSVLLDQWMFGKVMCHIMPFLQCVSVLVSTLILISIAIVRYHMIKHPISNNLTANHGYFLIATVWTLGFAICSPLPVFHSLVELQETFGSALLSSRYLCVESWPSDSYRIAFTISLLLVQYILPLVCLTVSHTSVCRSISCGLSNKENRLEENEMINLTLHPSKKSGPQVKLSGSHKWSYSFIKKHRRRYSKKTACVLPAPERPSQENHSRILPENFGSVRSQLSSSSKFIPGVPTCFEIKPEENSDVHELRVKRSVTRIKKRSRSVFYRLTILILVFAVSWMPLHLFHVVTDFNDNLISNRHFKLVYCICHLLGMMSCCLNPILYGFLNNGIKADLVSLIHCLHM
Protocol: NPY Receptor Binding Assay
Human NPY Y5 receptors were expressed in CHO cells. Binding assays were performed in 50 mM HEPES, pH 7.2, 2.5 mM CaCl2, 1 mM MgCl2 and 0.1% BSA containing 5-10 μg of membrane protein and 0.1 nM ^125I-peptide YY in a total volume of 200 μl. Non-specific binding was determined in the presence of 1 uM NPY. The reaction mixtures were incubated for 90 minutes at room temperature, then filtered through Millipore MAFC glass fiber filter plates which had been pre-soaked in 0.5% polyethyleneimine. The filters were washed with phosphate-buffered saline, and radioactivity was measured in a Packard TopCount scintillation counter.
In the case of `O=C(Nc1ccccc1)c1cccc(-c2nc(-c3cccc(C(F)(F)F)c3)c[nH]2)c1` [Example 2A], the Ki is reported as 315 nM. `CS(=O)(=O)Nc1cccc(-c2nc(-c3cccc(C(F)(F)F)c3)c[nH]2)c1` [Example 5A] was tested, and the Ki was 1.4 nM. With `O=C(Nc1cccc(-c2nc(-c3cccc(C(F)(F)F)c3)c[nH]2)c1)c1ccccc1` [Example 10A] the Ki was 63 nM. `FC(F)(F)c1cccc(-c2c[nH]c(-c3cccc(CN4CCCCC4)c3)n2)c1` [Example 3] showed a Ki of 17 nM. `FC(F)(F)c1cccc(-c2c[nH]c(C3=CCN(c4ccccn4)CC3)n2)c1` [Example 19] showed a Ki of 1.7 nM. `CS(=O)(=O)N1CCC(c2nc(-c3cc(Cl)cc(Cl)c3)c[nH]2)CC1` [Example 21C] gave a Ki of 2 nM. With `COC(=O)c1cccc(-c2nc(-c3cccc(C(F)(F)F)c3)c[nH]2)c1` [Example 1B] the Ki was 52 nM. `CN(c1cccc(-c2nc(-c3cccc(C(F)(F)F)c3)c[nH]2)c1)S(C)(=O)=O` [Example 6A] was tested, and the Ki was 2.1 nM. Work on `FC(F)(F)c1cccc(-c2c[nH]c(C34CC5CC(CC(C5)C3)C4)n2)c1` [Example 1A] yielded a Ki of 3 nM. Work on `FC(F)(F)c1cccc(-c2c[nH]c(N3CCN(c4ccccn4)CC3)n2)c1` [Example 26] yielded a Ki of 1.4 nM.
